Measured values reported in patent US10596234B2, “Compositions and methods to inhibit viral replication” (priority 2016, dated 2020).

Legend:
cGAS [1] = assay: Real-time PCR in THP-1 cells stably expressing UL37, transfected with HT-DNA; format: cell-based, human
Protocol: THP-1 or L929 cells were infected with HSV-1 (MOI=5) or stimulated with HT-DNA (2 μg/ml) or cGAMP (2 μg/ml) for 6 h unless specifically indicated otherwise. Cells were washed with cold PBS, and total RNA was extracted by using TRIzol Reagent (Invitrogen). RNA was digested with DNase I (New England Biolabs) to remove genomic DNA. One microgram of total RNA was used for reverse transcription with PrimeScript Reverse Transcriptase (Clontech) according to the manufacturer's instruction. Approximately 0.5% of the cDNA was used as template in each quantitative real-time PCR (qRT-PCR) reaction with SYBR master mix (Applied biosystems).
Lentivirus production was carried out in 293T cells as described previously. THP-1 or L929 cells were infected with lentivirus containing UL37 or UL37 C819S mutant. After 36 h, THP-1 cells were selected with puromycin at 1 μg/ml and L929 cells were selected with puromycin at 5 μg/ml.

IFN-β = IFN-β ELISA, 293T cells stably expressing UL37 infected with Sendai virus; format: cell-based, human; conditions: UL37 expression, SeV infection, 16 hpi
Protocol: Commercial cytokine ELISA kits used in this study include: human IFN-β (PBL Assay Science) and human RANTES (R&D Systems). Cytokine levels in the supernatant from cultured cells were assessed according to manufacturer's instruction. Absorbance was determined with FLUOstar Omega (BMG Labtech.).

cGAS [2] = assay: Tandem mass spectrometry quantification of cGAS deamidation; format: biochemical, mouse; conditions: UL37 expression; N196, N377, Q436, Q439
Protocol: Purified mcGAS(141-507) was deamidated by purified FLAG-UL37 in vitro. Then the samples were resolved with SDS-PAGE and the mcGAS bands were excised and applied to LC/MS/MS analysis. The analysis of samples was carried out using a Thermo Scientific Q-Exactive hybrid Quadrupole-Orbitrap Mass Spectrometer and a Thermo Dionex UltiMate 3000 RSLCnano System. Peptide mixtures from each sample were loaded onto a peptide trap cartridge at a flow rate of 5 μL/min. The trapped peptides were eluted onto a reversed-phase PicoFrit column (New Objective, Woburn, Mass.) using a linear gradient of acetonitrile (3-36%) in 0.1% formic acid. The elution duration was 120 min at a flow rate of 0.3 μl/min. Eluted peptides from the PicoFrit column were ionized and sprayed into the mass spectrometer, using a Nanospray Flex Ion Source ES071 (Thermo) under the following settings: spray voltage, 2.0 kV, Capillary temperature, 250° C. Other settings were empirically determined. Raw data files were searched against mouse protein sequence database obtained from NCBI website using the Proteome Discoverer 1.4 software (Thermo, San Jose, Calif.) based on the SEQUEST algorithm. Carbamidomethylation (+57.021 Da) of cysteines was fixed modification, and Oxidation and Deamidation Q/N-deamidated (+0.98402 Da) were set as dynamic modifications. The minimum peptide length was specified to be five amino acids. […]

[3] = tested on: interferon-stimulating DNA (ISD); assay: Precipitation of biotinylated interferon-stimulating DNA (ISD) with cGAS; format: binding
cGAS [4] = target: T1, cGAS (Mus musculus, UniProt Q8C6L5); assay: In vitro cGAMP activity assay; format: biochemical; conditions: in vitro cGAMP reaction
T1 construct: Purified mcGAS(141-507) was deamidated by purified FLAG-UL37 in vitro; made in house; host or cells: E. coli BL21 (DE3)
T1 sequence (Q8C6L5 141-507): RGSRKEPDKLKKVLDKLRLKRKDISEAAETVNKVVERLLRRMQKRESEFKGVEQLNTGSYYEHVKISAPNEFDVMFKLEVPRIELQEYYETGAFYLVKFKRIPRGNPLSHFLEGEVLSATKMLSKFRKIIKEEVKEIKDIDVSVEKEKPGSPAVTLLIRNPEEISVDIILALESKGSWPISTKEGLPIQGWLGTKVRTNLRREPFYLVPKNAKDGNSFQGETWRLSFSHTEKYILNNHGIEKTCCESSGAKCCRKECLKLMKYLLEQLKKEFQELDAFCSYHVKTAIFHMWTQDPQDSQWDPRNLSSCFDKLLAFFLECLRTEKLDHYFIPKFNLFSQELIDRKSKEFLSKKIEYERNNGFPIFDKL
Protocol: 1 μM of MBP-cGAS or mutant proteins was mixed with 100 μM ATP and 100 μM GTP and 10 μCi [α-P32]-ATP in reaction buffer (20 mM Tris-Cl [pH 7.5], 150 mM NaCl, 5 mM MgCl2, 1 mM dithiothreitol [DTT]). After 2 h of incubation at 37° C., 2 μl of reaction solution was spotted onto PEI-Cellulose thin layer chromatography plate (Sigma). Reaction products were resolved with running buffer (1 M (NH4)2SO4, 1.5 M KH2PO4, pH 3.8). The TLC plates were dried and scanned with Phosphoimager (Fuji).

RIG-I = target: T2, RIG-I (Homo sapiens, UniProt O95786, D580E); assay: In vitro deamidation assay (RIG-I); format: biochemical; conditions: protein purified from E. coli, 2-DGE
T2 construct: made in house; host or cells: GST-RIG-I: transfected 293T cells; UL37: E. coli
T2 sequence (O95786 1-925 D580E): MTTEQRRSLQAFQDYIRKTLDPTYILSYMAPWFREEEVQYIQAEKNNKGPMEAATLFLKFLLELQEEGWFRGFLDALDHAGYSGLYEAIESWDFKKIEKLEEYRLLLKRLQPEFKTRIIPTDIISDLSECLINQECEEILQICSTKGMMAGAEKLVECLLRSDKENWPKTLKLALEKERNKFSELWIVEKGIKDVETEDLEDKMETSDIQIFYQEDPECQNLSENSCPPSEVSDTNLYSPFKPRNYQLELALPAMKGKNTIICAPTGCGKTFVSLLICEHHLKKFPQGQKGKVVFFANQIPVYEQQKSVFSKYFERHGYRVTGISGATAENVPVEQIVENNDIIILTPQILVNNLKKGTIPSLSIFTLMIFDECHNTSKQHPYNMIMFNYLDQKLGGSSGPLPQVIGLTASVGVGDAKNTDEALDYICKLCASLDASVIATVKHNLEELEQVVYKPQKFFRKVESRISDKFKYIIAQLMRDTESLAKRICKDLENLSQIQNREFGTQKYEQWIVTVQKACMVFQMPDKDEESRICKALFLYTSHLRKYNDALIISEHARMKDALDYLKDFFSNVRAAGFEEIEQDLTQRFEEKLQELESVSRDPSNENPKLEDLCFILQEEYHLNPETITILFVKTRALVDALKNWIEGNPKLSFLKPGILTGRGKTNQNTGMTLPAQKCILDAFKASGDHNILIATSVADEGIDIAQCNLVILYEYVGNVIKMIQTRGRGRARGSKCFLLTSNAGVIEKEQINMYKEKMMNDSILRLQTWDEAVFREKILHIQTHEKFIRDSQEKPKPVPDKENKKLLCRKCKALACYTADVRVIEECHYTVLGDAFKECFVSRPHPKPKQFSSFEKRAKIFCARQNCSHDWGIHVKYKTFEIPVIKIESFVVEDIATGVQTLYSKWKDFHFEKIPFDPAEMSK
Protocol: GST-RIG-I was purified from transfected 293T cells to homogeneity as determined by silver staining. In vitro on-column deamidation of RIG-I was performed as previously reported (He et al., 2015). Briefly, ˜0.2 μg of His-tagged UL37/UL37 (571-1123) expressed and purified from E. coli, and 0.6 μg of GST-RIG-I (bound to glutathione-conjugated agarose) were added to a total volume of 30 μl. The reaction was carried out at 30° C. for 45 min in deamidation buffer (50 mM Tris-HCl, pH 7.5, 100 mM NaCl, 5 mM MgCl2). Protein-bound GST beads were washed with deamidation buffer and GST-RIG-I was eluted with rehydration buffer (6 M Urea, 2 M Thio-urea, 2% CHAPS, 0.5% IPG Buffer, 0.002% bromophenol blue) at room temperature. Samples were then analyzed by two-dimensional gel electrophoresis and immunoblotting.

cGAS [5] = assay: cGAMP reporter assay (THP1-Lucia); format: cell-based, human; conditions: THP-1 cells transfected with HT-DNA (HT-DNA alone approximately 60 ng)
Protocol: THP-1 Cells were transfected with HT-DNA (2 μg/ml) or infected with HSV-1 virus for 6 h. Cell extracts were prepared by heating at 95° C. for 5 min to denature most proteins, and then the precipitated proteins were removed by centrifugation. The supernatant containing cGAMP was delivered to digitonin-permeabilized (2.5 μg/ml for 30 min) THP1-Lucia cells at 37° C. for 30 min. The cells were cultured for another 20 h before Lucia reporter activity was measured according to the manufacturer's instruction (InvivoGen). Pure cGAMP was diluted and used as standard for the assay.

cGAS [6] = assay: In vitro deamidation assay (cGAS); format: biochemical, mouse; conditions: purified proteins
Protocol: The in vitro deamidation assay was performed as previously described. Briefly, 5 μg of purified MBP-mcGAS or MBP-mcGAS-DDEE mutant on amylose resin was incubated with 0.5 gig of purified FLAG-UL37 or FLAG-UL37C819S at 30° C. for 45 min in deamidation buffer (50 mM Tris-HCl [pH 7.5], 100 mM NaCl, and 5 mM MgCl2). Then the reaction was stopped by adding rehydration buffer and the eluted proteins were analyzed by two-dimensional gel electrophoresis.

UL37: HSV-1 UL37 tegument protein, a protein deamidase; SEQ ID NO. 1
reduction of IFNB1 and ISG56 expression (cGAS [1]; THP-1 cells, HT-DNA transfection, UL37 expression): ~60% | effect on expression of IFNB1, ISG56 and CXCL10 induced by HT-DNA (cGAS [1]; THP-1 stable cell lines): potently reduced the expression of IFNB1, ISG56 and CXCL10 | reduction of IFN-β secretion (IFN-β): ~75% | increase of deamidation of the four cGAS sites (cGAS [2]): 2-3 fold | increase of the interaction between cGAS and ISD [3]: ~50% | effect of added UL37 on cGAS-mediated cGAMP production (cGAS [4]): greatly reduced cGAS-mediated cGAMP production | RIG-I deamidation in vitro (RIG-I): sufficient to reduce RIG-I charge | intracellular cGAMP (cGAS [5]): ~35 ng per one million THP-1 cells | cGAS deamidation in vitro (2DGE shift) (cGAS [6]): shifted cGAS toward the positive end of the gel strip
